# Assay results reported in publication PMC4682775, “A Novel Vasoactive Proline-Rich Oligopeptide from the Skin Secretion of the Frog Brachycephalus ephippium” (PLoS ONE, 2015).
# Where two headings read alike, the source gives them in different places. Non-standard residues stand in square brackets, D forms with d. No end group written: not given here. pGlu = O=C1CC[C@@H](C(=O)O)N1
# Columns and labels:
# [1] = tested on: rat thoracic aorta; assay: tissue or blood; set-up: species or system rat (male Wistar)
# Experimental: Male Wistar rats (250 ± 30 g) were maintained under controlled temperature (22 ± 1 ≡C), 12/12 h light/dark cycle, and had free access to water and food (Purina-Nestlé, São Paulo, SP, Brazil). Rat thoracic aortic rings were prepared according to Silva-Filho and colleagues. Briefly, aortic rings (3–4 mm) were maintained in Krebs solution (in mM: NaCl, 118.0; KCl, 4.6; CaCl2.2H2O, 2.5; MgSO4.7H2O, 5.7; NaHCO3, 25.0; KH2PO4.H2O, 1.1; and D-glucose, 11.0) under isometric tension of 1.0 g, 37°C and bubbled with 5% CO2 in 95% O2. […]. Time control contractions induced by PE, but without adding drug were obtained in parallel with other vascular segments.
# The IC50 values for the ACE activity and the pD2 values for the vasodilator curves were obtained by non-linear regression. All values were expressed as means ± SEM, and significances for compared values were analyzed by Student’s “t” test or One-way ANOVA followed by Bonferroni’s post-test. All procedures were performed using Graph Pad Prism 5.02™ (Graph Pad Software, Inc., San Diego, CA, USA).
# [2] = tested on: M3 muscarinic receptors; conditions: ref [17]; cited from earlier work
# [3] = tested on: rat aorta; conditions: cited from earlier work
# Text: […]. NO is an important endothelium-derived vasodilator and is pivotal in several biological processes. The increase in NO production plays a pivotal role in the cardiovascular effects of BPPs.
# [4] = tested on: HEK293 cells; conditions: chemiluminescence assay, ref [15],[17]; cited from earlier work
# Text: It is essentially non-fluorescent until it reacts with NO to form a highly fluorescent benzotriazole. ...
# [5] = tested on: M1 muscarinic receptor and B2 bradykinin receptor; conditions: ref [15]; cited from earlier work
# [6] = cited from earlier work
# [7] = tested on: argininosuccinate syntethase enzyme (AsS); conditions: followed by increased L-arginine levels and formation of NO; ref [14]; cited from earlier work
# [8] = tested on: human hypertension; conditions: parenteral administration, in contrast to oral administration; ref [10]; cited from earlier work
# Text: The Bj-BPP-5a was the first BPP for which the amino acid sequence was described. Bj-BPP-5a is present in hydroalcoholic extracts of the snake venom Bothrops jararaca. […] Captopril was the fir ...
# [9] = tested on: VSMCs; conditions: rat aortic VSMCs; 10^−12 to 10^−5 M, 24 hours, MTT 4 hours, n = 3
# [10] = tested on: HUVECs; conditions: 10^−12 to 10^−5 M, 24 hours, MTT 4 hours, n = 3
# [11] = target: T1, ACE (Rattus norvegicus, UniProt P47820); assay: biochemical; set-up: species or system rat (Wistar rat serum); conditions: rat serum ACE; 1.0 mM hippuryl-His-Leu-OH, 20 mM Tris-HCl pH 8.1, 0.3 M NaCl, 37°C, 30 min, duplicate; inhibitor 0.05 to 50 μM; non-linear regression; read-out: IC50, ACE inhibition
# T1 construct: 20 μL of enzyme-containing serum; from tissue; host or cells: fresh Wistar rat serum
# T1 sequence (P47820 36-1313): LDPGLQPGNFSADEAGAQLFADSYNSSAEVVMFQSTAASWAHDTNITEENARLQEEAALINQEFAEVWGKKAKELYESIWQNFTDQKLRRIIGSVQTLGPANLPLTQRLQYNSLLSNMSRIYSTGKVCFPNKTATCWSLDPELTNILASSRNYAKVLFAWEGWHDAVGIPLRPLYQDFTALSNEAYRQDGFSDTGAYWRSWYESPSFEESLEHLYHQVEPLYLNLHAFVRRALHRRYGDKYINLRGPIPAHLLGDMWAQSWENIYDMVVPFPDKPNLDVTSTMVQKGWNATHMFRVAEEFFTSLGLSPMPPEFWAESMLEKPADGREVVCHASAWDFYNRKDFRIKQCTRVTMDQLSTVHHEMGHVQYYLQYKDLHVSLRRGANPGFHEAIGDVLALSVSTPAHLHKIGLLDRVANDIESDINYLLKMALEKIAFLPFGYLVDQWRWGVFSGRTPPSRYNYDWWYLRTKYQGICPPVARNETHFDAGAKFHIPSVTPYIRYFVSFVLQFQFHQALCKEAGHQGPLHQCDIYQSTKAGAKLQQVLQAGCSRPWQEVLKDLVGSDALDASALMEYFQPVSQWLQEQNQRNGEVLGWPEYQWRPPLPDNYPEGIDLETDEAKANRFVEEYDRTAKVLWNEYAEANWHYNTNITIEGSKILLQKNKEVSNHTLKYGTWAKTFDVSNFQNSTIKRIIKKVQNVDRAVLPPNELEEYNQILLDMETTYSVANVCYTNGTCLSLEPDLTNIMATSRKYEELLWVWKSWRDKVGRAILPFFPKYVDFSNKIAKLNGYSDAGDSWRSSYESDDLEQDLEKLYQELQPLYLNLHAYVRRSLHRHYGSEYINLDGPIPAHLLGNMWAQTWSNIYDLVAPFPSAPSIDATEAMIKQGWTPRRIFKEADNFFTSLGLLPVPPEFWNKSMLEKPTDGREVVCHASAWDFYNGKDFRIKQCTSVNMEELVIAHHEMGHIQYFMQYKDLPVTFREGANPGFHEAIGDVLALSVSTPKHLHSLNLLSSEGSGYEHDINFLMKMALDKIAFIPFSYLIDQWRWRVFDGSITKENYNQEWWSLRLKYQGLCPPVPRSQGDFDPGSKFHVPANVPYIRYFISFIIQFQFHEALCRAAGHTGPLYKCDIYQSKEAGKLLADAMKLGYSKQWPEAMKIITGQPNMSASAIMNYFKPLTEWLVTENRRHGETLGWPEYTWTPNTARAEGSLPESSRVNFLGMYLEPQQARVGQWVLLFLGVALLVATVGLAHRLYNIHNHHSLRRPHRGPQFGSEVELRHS
# Experimental: Fresh Wistar rat serum was used as source of ACE in these reactions, and the product H-His-Leu-OH was measured fluorimetrically following derivatization with o-phtaldialdehyde, as described [24, 25]. Reactions were carried out, in duplicate, at 37°C for 30 min in 200 μL of 20 mM Tris-HCl buffer, pH 8.1, 0.3 M NaCl, 1.0 mM H-hippuryl-His-Leu-OH, 20 μL of enzyme-containing serum and different inhibitor concentrations as described above.
molecule,measurement,setting,value
C[C@H](CS)C(=O)N1CCC[C@H]1C(=O)O [captopril],Emax,"[1]; Rattus norvegicus, endothelium intact (E+), phenylephrine 3 × 10^−7 M, 10^−9–3 × 10^−5 M cumulative, Krebs 37°C, means ± SEM, n = 6, read-out: Emax (relaxation)",32.1 ± 4.2%
same,vasodilatation (result in words),[1]; endothelium dependence,endothelium-dependent vasodilatation
same,"vasodilatation, captopril and BPP-BrachyNH2 compared",[1]; result in words,equipotent and of the same magnitude
<EGGWPRPGPEIPP ([pGlu]GGWPRPGPEIPP) [Bj-BPP-13a],receptors to which increase of NO production is related,[2],related to the M3 muscarinic receptors activation
<EKWAP [Bj-BPP-5a],vasodilatory effects,"[3]; in vitro and in vivo, ref [45] (TsHpt-I), [16] and [15] (Bj-BPP-5a)",vasodilatory effects
same,endothelium-dependent relaxation,"[3]; rat aorta, ref [16],[45]",endothelium-dependent relaxations sensitive to eNOS inhibition
same,NO release,[4],increase NO release
same,receptors on which increment of NO production depends,[5],depends on M1 muscarinic receptor and B2 bradykinin receptor activation
same,antihypertensive effect,"[6]; NO dependence, ref [16]",NO-dependent anti-hypertensive effect
<ENWPHPQIPP ([pGlu]NWPHPQIPP) [Bj-BPP-10c],argininosuccinate syntethase (AsS) activation,[7],activation of the argininosuccinate syntethase enzyme (AsS)
same,antihypertensive effect,"[6]; result in words, ref [13]",ACE-independent antihypertensive effect
<EWPRPQIPP (N-terminal pyroglutamate) [Bj-BPP-9a],benefit in treatment of human hypertension,[8],showed benefits
WPPPKVSP-NH2 [BPP-BrachyNH2],cell viability / cytotoxicity,[9],No cytotoxic effects were observed
same,reversibility / lethality to vascular cells,"[1]; after wash and 30 min stabilization, new PE contraction, data not shown",reversible and non-lethal to vascular cells
same,cell viability / cytotoxicity,[10],No cytotoxic effects were observed
same,IC50,[11],8.2 µM
